Here are results for four compounds from PubChem BioAssay (NCI).

Several values for one entry are separate records, joined by “and”; a condition that tells them apart may be missing. Equal entries are not always repeated.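 Dose response: 5 concentrations. Exposure: 48 h. Format: 96-well plates. Endpoint: linear interpolation; highest concentration if not reached. The concentration for 50% growth inhibition is given as GI50. The concentration for full growth arrest is given as TGI.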

Test systems include A549 NSCLC; BT-549 breast; CAKI-1 renal; EKVX NSCLC; HL-60(TB) leukemia; K-562 leukemia; LOX IMVI melanoma; MALME-3M melanoma; MCF7 breast; MDA-N; NCI-H460 lung; RPMI-8226 leukemia; SW-620 colon; UO-31 renal.
Experiment in all cases: inhibition of tumour cell growth, NCI panel, 48 h

As to `Cc1c(F)c(N)c2c(=O)cc(-c3ccc(NC(=O)[C@@H](N)CCCCN)c(F)c3)oc2c1F`, the GI50 is 3.03 µM and 0.59 µM in the assay with A549 NSCLC; 11.2 µM and 2.41 µM in the assay with HL-60(TB) leukemia; 0.652 µM and 0.278 µM with K-562 leukemia; 23.6 µM and 10 µM with MALME-3M melanoma; 3.48 µM and 0.936 µM with RPMI-8226 leukemia; 7.81 µM and 1.71 µM in the assay with SW-620 colon. Further, the TGI in the assay with A549 NSCLC was 31 µM and 18.4 µM; in the assay on BT-549 breast, 50.3 µM and 49.6 µM; in the assay on CAKI-1 renal, 9.01 µM and 29.7 µM; with EKVX NSCLC, 28.4 µM and 22.6 µM; in the assay on HL-60(TB) leukemia it was 29.3 µM and 30.4 µM; in the assay on K-562 leukemia, 36.4 µM and 10.4 µM. The TGI in the assay with LOX IMVI melanoma is 41.3 µM and 27.7 µM; with MALME-3M melanoma, 44.2 µM and 33.6 µM; with MCF7 breast it was 1.81 µM and 1.38 µM; with MDA-N it was 28.7 µM and 24.6 µM; in the assay with NCI-H460 lung, 16.2 µM and 16.6 µM; in the assay on RPMI-8226 leukemia it was 32.6 µM and 22.3 µM. Moreover, the TGI in the assay with SW-620 colon is 39 µM and 17.3 µM; with UO-31 renal, 33.7 µM and 22.1 µM.
As to `CC(C)(C)[Si](C)(C)OCC#C[C@@]1(O)CCCCC1CC(Sc1ccccc1)Sc1ccccc1` (some centres not stated), the TGI in the assay with A549 NSCLC was 28 µM; in the assay with BT-549 breast it was 36.3 µM; in the assay on CAKI-1 renal, 23.2 µM; in the assay with EKVX NSCLC, 30 µM; with HL-60(TB) leukemia it was 41.9 µM; in the assay with K-562 leukemia, > 100 µM. The TGI in the assay with LOX IMVI melanoma turned out to be 34.5 µM; in the assay with MALME-3M melanoma it was 32.3 µM; in the assay with MCF7 breast, 24.7 µM; in the assay with MDA-N it was 37.7 µM; in the assay on NCI-H460 lung, 34.6 µM; in the assay on RPMI-8226 leukemia, 73.3 µM. Besides, the TGI in the assay with SW-620 colon is 31.7 µM; in the assay on UO-31 renal it was 26.9 µM.
For `CC(=O)OC[C@@H](OC(C)=O)[C@@H](OC(C)=O)[C@H]1OC[C@@H]2C[C@H]([C@H]1OC(C)=O)N(Cc1ccccc1)O2`, the TGI in the assay on A549 NSCLC, in the assay on BT-549 breast, in the assay on CAKI-1 renal, with EKVX NSCLC, with HL-60(TB) leukemia and with K-562 leukemia was > 100 µM throughout. Also, the TGI in the assay on LOX IMVI melanoma, in the assay on MALME-3M melanoma, with MCF7 breast, with MDA-N, in the assay with NCI-H460 lung and in the assay with RPMI-8226 leukemia was > 100 µM throughout. Moreover, the TGI in the assay on SW-620 colon and with UO-31 renal was > 100 µM throughout.
As to `NS(=O)(=O)c1nnc(/N=C(/CCC(=O)O)C(=O)O)s1`, the TGI in the assay on A549 NSCLC, in the assay with BT-549 breast, in the assay on CAKI-1 renal, in the assay on EKVX NSCLC, in the assay on HL-60(TB) leukemia and in the assay with K-562 leukemia was > 100 µM in each case. The TGI with LOX IMVI melanoma, in the assay on MALME-3M melanoma, with MCF7 breast, in the assay on MDA-N, with NCI-H460 lung and in the assay with RPMI-8226 leukemia was > 100 µM throughout. The TGI in the assay with SW-620 colon and in the assay with UO-31 renal was > 100 µM throughout.
